{
  "source": "patent US20100273656A1",
  "about": "“COMPOSITION AND METHOD FOR SELECTIVE HERBICIDE” (priority 2002, published 2010)",
  "key": {"[1]": {"tested_on": "dandelions", "test": "Example 3 FeSO4, EDTA, EDDS and MH combinations on potted dandelions", "type": "in vivo, Taraxacum officinale", "conditions": "for Plant Death (%) Dandelion: 3 days after second spray; for Plant Damage (0 to 9) Dandelion: 3 days after second spray (re-sprayed after 9 days)", "experimental": "(§1) The following non-limiting examples serve to further describe the invention. Unless otherwise specified, all of the iron solutions were made using the same molar concentration of iron ion as chelating agent. All of the outside tests were done on areas of mixed grass and dandelions that were at least 2 months old. For the greenhouse tests, dandelions were grown in a commercial greenhouse mix, using supplemental lighting and heating. Each plant was grown in a 2¼ inch pot to a minimum diameter of 20 cm. All of the solutions were sprayed onto the plants at a rate of 100 ml/m^2. The ferrous sulfate formulations that were used in examples 1, 2, 8 and 9 contained 1% iron (180 mM), 18 mM EDTA, 1% citric acid and 0.5% urea. In all of the examples, the amount of iron is identified in brackets as the percent iron on a weight basis.\n(§2) All plant damage was assessed using a qualitative rating scale from 0 to 9.\n(§3) This test investigated the effect of 10% chelation and pH on potted grass and dandelions. All of the solutions contained 10% ferrous sulfate heptahydrate, resulting in a Fe^+2 concentration of 2% (358.1 mM). EDTA and EDDS were added at 1/10th of the iron molar concentration (35.8 mM). MH was added 1%. The dandelions and turf grasses were sow in separate pots 3 weeks prior to the start of the test.\n(§4) The plants were re-sprayed after 9 days."}, "[2]": {"tested_on": "grass", "test": "Example 2 field test of FeEDDS and FeHEDTA at pH 3 and 7, grass", "type": "in vivo", "conditions": "solution pH 2.6-3.0; field, 0.1 L/m^2, 4 days after spraying", "experimental": "as §1, §2\n(§5) The FeEDDS and FeHEDTA solutions contained 0.2% Fe^+3 (35.8 mM). The ferrous sulfate contained 1% Fe^+2 (179.1 mM). The solutions were sprayed at a rate of 0.1 L/m^2 onto 2 plots of 0.5 m^2 of mixed grass and dandelions. Observations were made 4 days after spraying."}, "[3]": {"tested_on": "dandelions", "test": "Example 2 field test of FeEDDS and FeHEDTA at pH 3 and 7, dandelion", "type": "in vivo, Taraxacum officinale", "conditions": "solution pH 2.6-3.0, 0.1 L/m^2, 4 days after spraying", "experimental": "as §1, §2, §5"}, "[4]": {"tested_on": "dandelions (Taraxacum officinale)", "test": "Example 9 lawn restoration, dandelion coverage", "type": "in vivo", "experimental": "(§6) Na4EDTA was added to the ferrous sulfate solution at 1.5% (36 mM). The molar level of EDTA is 1/10 that of the iron ions. […] The urea is added as a nitrogen fertilizer source to encourage the growth of the grasses."}, "[5]": {"tested_on": "daisy plants (Bellis perennis BELPE)", "test": "Example 8 field daisy test of iron solutions", "type": "in vivo", "conditions": "0.5 L/m^2, 6 days after spraying", "experimental": "as §1"}, "[6]": {"tested_on": "dandelions", "test": "Example 1 field test of iron chelates, dandelion damage", "type": "in vivo, Taraxacum officinale", "conditions": "sprayed once at 100 ml/m^2, 5 days after spraying", "experimental": "as §1, §2\n(§7) All of the iron chelates were sprayed once at 0.2% Fe^+3 (35.8 mM), at a volume of 100 ml/m^2 onto 0.5 m^2 areas of mixed grass and dandelions. The spraying of the test was followed by 2 days of rain-free weather. Observations were made 5 days after spraying."}, "[7]": {"tested_on": "dock (Rumex crispus)", "test": "Example 9 lawn restoration, dock coverage", "type": "in vivo", "conditions": "after 18 days, sprayed twice", "experimental": "as §6"}, "[8]": {"tested_on": "grass", "test": "Example 9 lawn restoration, grass coverage and damage", "type": "in vivo", "conditions": "after 18 days, sprayed twice", "experimental": "as §6"}, "[9]": {"tested_on": "grass", "test": "Example 1 field test of iron chelates, grass damage", "type": "in vivo", "conditions": "field, sprayed once at 100 ml/m^2, 5 days after spraying", "experimental": "as §1, §2, §7"}, "[10]": {"tested_on": "dandelions", "test": "Example 7 potassium nonanoate with FeHEDTA, greenhouse dandelions", "type": "in vivo, Taraxacum officinale", "conditions": "for Dead Plants (#/10): 8 + 5 days after spraying", "experimental": "as §1, §2\nThis test compared the damaged caused by combinations of fatty acid and FeHEDTA. FeHEDTA was used at a concentration to 35.8 mM. The treatment with 0.1% Fe contained twice the molar amount of chelating agent as iron. The treatment with 0.2% iron contained the same molar amount of chelating agent as iron Potassium nonanoate (KC9) was used at 0.84%. The plants were re-sprayed 8 days after the first spray."}, "[11]": {"tested_on": "turf grasses", "conditions": "for Plant Death (%) Grass: 3 days after second spray; for Plant Damage (0 to 9) Grass: 3 days after second spray (re-sprayed after 9 days)", "experimental": "as §1, §2, §3, §4"}},
  "note": "Like-named read-outs stand apart in the source and are kept apart here.",
  "data": [
    {"smiles": "O=S(=O)([O-])[O-].[Fe+2]", "note": "[FeSO4, ferrous sulfate]", "values": [
      {"measurement": "Plant Death (%) Dandelion", "setting": "[1]; pH 3", "result": 76, "unit": "%"},
      {"measurement": "Plant Damage (0 to 9) Dandelion", "setting": "[1]; pH 3", "result": "8.2 0 to 9"},
      {"measurement": "Plant Death (%) Dandelion", "setting": "[1]; pH 6", "result": 17, "unit": "%"},
      {"measurement": "Plant Damage (0 to 9) Dandelion", "setting": "[1]; pH 6", "result": "6.0 0 to 9"},
      {"measurement": "Grass Damage (0 to 9)", "setting": "[2]", "result": "7.0 0 to 9"},
      {"measurement": "Dandelion Damage (0 to 9)", "setting": "[3]", "result": "7.0 0 to 9"},
      {"measurement": "effect on dandelion (and dock) in the plots, in words", "setting": "[4]; Example 9, text", "result": "did not appear to reduce the area covered by dandelions"},
      {"measurement": "Plot Area Covered (%) By: Dandelion", "setting": "[4]; after 18 days, sprayed twice", "result": 65, "unit": "%"},
      {"measurement": "Daisy Mortality (%)", "setting": "[5]", "result": 6, "unit": "%"},
      {"measurement": "Dandelion Damage (0 to 9)", "setting": "[6]", "result": "6.3 0 to 9"},
      {"measurement": "Plot Area Covered (%) By: Dock", "setting": "[7]", "result": 14, "unit": "%"},
      {"measurement": "Grass Damage (0 to 9)", "setting": "[8]", "result": 1},
      {"measurement": "Plot Area Covered (%) By: Grass", "setting": "[8]", "result": 20, "unit": "%"},
      {"measurement": "Grass Damage (0 to 9)", "setting": "[9]", "result": 7},
      {"measurement": "Plant Damage (0 to 9)", "setting": "[10]; 8 + 5 days after spraying (re-sprayed after 8 days), listed as FeSO4 (0.2% Fe^+2)", "result": "0.2 0 to 9"},
      {"measurement": "Plant Damage (0 to 9)", "setting": "[10]; 8 + 5 days after spraying (re-sprayed after 8 days), listed as FeSO4 (1% Fe^+2)", "result": "7.2 0 to 9"},
      {"measurement": "Plant Damage (0 to 9)", "setting": "[10]; 8 + 5 days after spraying (re-sprayed after 8 days), listed as FeSO4 (2% Fe^+2)", "result": "8.4 0 to 9"},
      {"measurement": "Dead Plants (#/10)", "setting": "[10]; listed as FeSO4 (0.2% Fe^+2)", "result": "0 #/10"},
      {"measurement": "Dead Plants (#/10)", "setting": "[10]; listed as FeSO4 (1% Fe^+2)", "result": "5 #/10"},
      {"measurement": "Dead Plants (#/10)", "setting": "[10]; listed as FeSO4 (2% Fe^+2)", "result": "8 #/10"},
      {"measurement": "Plant Damage (0 to 9)", "setting": "[10]; 7 days after spraying, listed as FeSO4 (0.2% Fe^+2)", "result": "0.8 0 to 9"},
      {"measurement": "Plant Damage (0 to 9)", "setting": "[10]; 7 days after spraying, listed as FeSO4 (1% Fe^+2)", "result": "4.4 0 to 9"},
      {"measurement": "Plant Damage (0 to 9)", "setting": "[10]; 7 days after spraying, listed as FeSO4 (2% Fe^+2)", "result": "6.2 0 to 9"},
      {"measurement": "Plant Death (%) Grass", "setting": "[11]; pH 3", "result": 0, "unit": "%"},
      {"measurement": "Plant Damage (0 to 9) Grass", "setting": "[11]; pH 3", "result": 4},
      {"measurement": "Plant Death (%) Grass", "setting": "[11]; pH 6", "result": 0, "unit": "%"},
      {"measurement": "Plant Damage (0 to 9) Grass", "setting": "[11]; pH 6", "result": 0}
    ]}
  ]
}
